Where a name gives a salt, the structure may show the parent alone. Each block holds one compound with its values, some of them ahead of it.
Test: Solubility of the salts (saturated solution, filtering, HPLC determination of homoeriodictyol content)
Type: physicochemical
Experimental: The solubility of the homoeriodictyol sodium salt and the salts produced in Example 1 and Example 2 is determined by the production of a saturated solution, filtering of this and then HPLC determination of the homoeriodictyol content.

- solubility (water containing 1.5 g/l citric acid, aqueous buffer, thermodynamic from solid, saturated solution, filtered, HPLC): 3800 µg/mL
- Solubility in water (saturated solution, filtered, HPLC, sodium salt): 2800 µg/mL
SMILES: COc1cc([C@@H]2CC(=O)c3c(O)cc(O)cc3O2)ccc1O [Homoeriodictyol sodium salt, reference compound]

- solubility compared with pure homoeriodictyol sodium salt: better solubility
- Solubility in water, containing 1.5 g/l citric acid (water containing 1.5 g/l citric acid, saturated solution, filtered, HPLC, potassium salt): 5100 µg/mL
- Solubility in water (saturated solution, filtered, HPLC, potassium salt): 7000 µg/mL
SMILES: COc1cc([C@@H]2CC(=O)c3c(O)cc(O)cc3O2)ccc1O [Example 1, homoeriodictyol potassium salt]

- Solubility in water, containing 1.5 g/l citric acid (water containing 1.5 g/l citric acid, saturated solution, filtered, HPLC, Potassium Calcium Salt): 5400 µg/mL
- Solubility in water (saturated solution, filtered, HPLC, Potassium Calcium Salt): 10000 µg/mL
SMILES: COc1cc([C@@H]2CC(=O)c3c(O)cc(O)cc3O2)ccc1O [Example 2, Homoeriodictyol Potassium Calcium Salt]

From patent US9198451B2, “Aroma composition to reduce or suppress undesirable bitter and astringent taste impressions of sweeteners” (SYMRISE AG, priority 2008, dated 2015)
